pIC50: −log10 of the molar value.

The subject of the first experiment is A549. Description: Cytotoxicity against human A549 cells by MTT assay. Type of experiment: functional, cell-based. For orientation: Tetrazolium assays rely on reduction of a dye to a coloured formazan, in cell work by metabolically active cells.
`COC(=O)CC1=CC[C@H]2[C@@H](C(=O)[C@H](O)[C@@H]3[C@]2(C)CCC[C@]3(C)C(=O)OC)[C@H]1C` showed a negative logarithm of the IC50 (pIC50) below 5.00.
Compound `C/C=C(\C)C(=O)O[C@H]1CC[C@@]2(C)[C@@H]([C@@H](O)C(=O)[C@H]3[C@@H](C)/C(=C/C(=O)OC)CC[C@@H]32)[C@@]1(C)C(=O)OC` gave a pIC50 below 5.00.
Still for that read-out and setting: the value for `C/C=C(\C)C(=O)O[C@H]1CC[C@@]2(C)[C@@H](CC(=O)[C@H]3[C@@H](C)/C(=C/C(=O)OCCNC)CC[C@@H]32)[C@@]1(C)C(=O)OC` was 6.30.

In the next experiment the test system is NCI-H1975. Nature of the experiment: Cytotoxicity against human NCI-H1975 cells by MTT assay. Type of experiment: functional, cell-based.
Consider `COC(=O)CC1=CC[C@H]2[C@@H](C(=O)[C@H](O)[C@@H]3[C@]2(C)CCC[C@]3(C)C(=O)OC)[C@H]1C`, for which the pIC50 was below 5.00.
On the same count and under the same terms, in the case of `C/C=C(\C)C(=O)O[C@H]1CC[C@@]2(C)[C@@H]([C@@H](O)C(=O)[C@H]3[C@@H](C)/C(=C/C(=O)OC)CC[C@@H]32)[C@@]1(C)C(=O)OC` it was below 5.00.
The compound `C/C=C(\C)C(=O)O[C@H]1CC[C@@]2(C)[C@@H](CC(=O)[C@H]3[C@@H](C)/C(=C/C(=O)OCCNC)CC[C@@H]32)[C@@]1(C)C(=O)OC` gave a pIC50 of 6.40.

A further experiment has as its system NCI-H1299. Description: Cytotoxicity against human NCI-H1299 cells by MTT assay. Type of experiment: functional, cell-based.
The compound `COC(=O)CC1=CC[C@H]2[C@@H](C(=O)[C@H](O)[C@@H]3[C@]2(C)CCC[C@]3(C)C(=O)OC)[C@H]1C` had a pIC50 below 5.00.
Still for that read-out and setting: the value for `C/C=C(\C)C(=O)O[C@H]1CC[C@@]2(C)[C@@H]([C@@H](O)C(=O)[C@H]3[C@@H](C)/C(=C/C(=O)OC)CC[C@@H]32)[C@@]1(C)C(=O)OC` was below 5.00.
The same measure, in the same setting: in the case of `C/C=C(\C)C(=O)O[C@H]1CC[C@@]2(C)[C@@H](CC(=O)[C@H]3[C@@H](C)/C(=C/C(=O)OCCNC)CC[C@@H]32)[C@@]1(C)C(=O)OC` it was 6.05.

Another experiment has as its system A549. Description: Induction of apoptosis in human A549 cells assessed as early apoptotic cells at 0.3 uM after 48 hrs by Annexin-V-FITC/propidium iodide staining based flow cytometric method (reference value: 1.04 to 2.73%). It counts as functional. A general note: Flow cytometry measures light scatter and fluorescence of single cells or particles in a stream.
For `C/C=C(\C)C(=O)O[C@H]1CC[C@@]2(C)[C@@H](CC(=O)[C@H]3[C@@H](C)/C(=C/C(=O)OCCNC)CC[C@@H]32)[C@@]1(C)C(=O)OC`, the Activity was determined as 1.87%.

Another experiment relates to A549. Nature of the experiment: Induction of apoptosis in human A549 cells assessed as late apoptotic cells at 0.3 uM after 48 hrs by Annexin-V-FITC/propidium iodide staining based flow cytometric method (reference value: 3.4 to 4.76%). Type of experiment: functional.
With `C/C=C(\C)C(=O)O[C@H]1CC[C@@]2(C)[C@@H](CC(=O)[C@H]3[C@@H](C)/C(=C/C(=O)OCCNC)CC[C@@H]32)[C@@]1(C)C(=O)OC`, the Activity was 3.96%.

Another experiment relates to A549. Nature of the experiment: Induction of apoptosis in human A549 cells assessed as early apoptotic cells at 3 uM after 48 hrs by Annexin-V-FITC/propidium iodide staining based flow cytometric method (reference value: 1.04 to 2.73%). It counts as functional.
Consider `C/C=C(\C)C(=O)O[C@H]1CC[C@@]2(C)[C@@H](CC(=O)[C@H]3[C@@H](C)/C(=C/C(=O)OCCNC)CC[C@@H]32)[C@@]1(C)C(=O)OC`, for which the Activity is recorded as 7.27%.

A further experiment concerns A549. Description: Induction of apoptosis in human A549 cells assessed as late apoptotic cells at 3 uM after 48 hrs by Annexin-V-FITC/propidium iodide staining based flow cytometric method (reference value: 3.4 to 4.76%). It counts as functional.
As for `C/C=C(\C)C(=O)O[C@H]1CC[C@@]2(C)[C@@H](CC(=O)[C@H]3[C@@H](C)/C(=C/C(=O)OCCNC)CC[C@@H]32)[C@@]1(C)C(=O)OC`, the Activity was 12.24%.

The subject of the next experiment is NCI-H1975. Nature of the experiment: Induction of apoptosis in human NCI-H1975 cells assessed as early apoptotic cells at 0.3 uM after 48 hrs by Annexin-V-FITC/propidium iodide staining based flow cytometric method (reference value: 2.5 to 3.56%). It counts as functional.
With `C/C=C(\C)C(=O)O[C@H]1CC[C@@]2(C)[C@@H](CC(=O)[C@H]3[C@@H](C)/C(=C/C(=O)OCCNC)CC[C@@H]32)[C@@]1(C)C(=O)OC`, the Activity came to 2.14%.

A further experiment relates to NCI-H1975. Nature of the experiment: Induction of apoptosis in human NCI-H1975 cells assessed as late apoptotic cells at 0.3 uM after 48 hrs by Annexin-V-FITC/propidium iodide staining based flow cytometric method (reference value: 2.92 to 4.29%). Type of experiment: functional.
For the compound `C/C=C(\C)C(=O)O[C@H]1CC[C@@]2(C)[C@@H](CC(=O)[C@H]3[C@@H](C)/C(=C/C(=O)OCCNC)CC[C@@H]32)[C@@]1(C)C(=O)OC`, the Activity amounted to 3.02%.

For the next experiment, the system named is NCI-H1975. Nature of the experiment: Induction of apoptosis in human NCI-H1975 cells assessed as early apoptotic cells at 3 uM after 48 hrs by Annexin-V-FITC/propidium iodide staining based flow cytometric method (reference value: 2.5 to 3.56%). Type of experiment: functional.
Regarding `C/C=C(\C)C(=O)O[C@H]1CC[C@@]2(C)[C@@H](CC(=O)[C@H]3[C@@H](C)/C(=C/C(=O)OCCNC)CC[C@@H]32)[C@@]1(C)C(=O)OC`, the Activity came to 5.2%.

Another experiment deals with NCI-H1975. Description: Induction of apoptosis in human NCI-H1975 cells assessed as late apoptotic cells at 3 uM after 48 hrs by Annexin-V-FITC/propidium iodide staining based flow cytometric method (reference value: 2.92 to 4.29%). Type of experiment: functional.
As to `C/C=C(\C)C(=O)O[C@H]1CC[C@@]2(C)[C@@H](CC(=O)[C@H]3[C@@H](C)/C(=C/C(=O)OCCNC)CC[C@@H]32)[C@@]1(C)C(=O)OC`, the Activity is listed as 7.56%.

The test system of another experiment is NCI-H1299. Nature of the experiment: Induction of apoptosis in human NCI-H1299 cells assessed as early apoptotic cells at 0.3 uM after 48 hrs by Annexin-V-FITC/propidium iodide staining based flow cytometric method (reference value: 1.91%). Type of experiment: functional.
Regarding `C/C=C(\C)C(=O)O[C@H]1CC[C@@]2(C)[C@@H](CC(=O)[C@H]3[C@@H](C)/C(=C/C(=O)OCCNC)CC[C@@H]32)[C@@]1(C)C(=O)OC`, the Activity was determined as 4.52%.

The test system of another experiment is NCI-H1299. Nature of the experiment: Induction of apoptosis in human NCI-H1299 cells assessed as late apoptotic cells at 0.3 uM after 48 hrs by Annexin-V-FITC/propidium iodide staining based flow cytometric method (reference value: 2.69%). Type of experiment: functional.
Take `C/C=C(\C)C(=O)O[C@H]1CC[C@@]2(C)[C@@H](CC(=O)[C@H]3[C@@H](C)/C(=C/C(=O)OCCNC)CC[C@@H]32)[C@@]1(C)C(=O)OC`: the Activity was 3.24%.

The next experiment concerns NCI-H1299. Nature of the experiment: Induction of apoptosis in human NCI-H1299 cells assessed as early apoptotic cells at 3 uM after 48 hrs by Annexin-V-FITC/propidium iodide staining based flow cytometric method (reference value: 1.91%). Type of experiment: functional.
In the case of `C/C=C(\C)C(=O)O[C@H]1CC[C@@]2(C)[C@@H](CC(=O)[C@H]3[C@@H](C)/C(=C/C(=O)OCCNC)CC[C@@H]32)[C@@]1(C)C(=O)OC`, the Activity came to 16.48%.

The next experiment relates to NCI-H1299. Nature of the experiment: Induction of apoptosis in human NCI-H1299 cells assessed as late apoptotic cells at 3 uM after 48 hrs by Annexin-V-FITC/propidium iodide staining based flow cytometric method (reference value: 2.69%). Type of experiment: functional.
Consider `C/C=C(\C)C(=O)O[C@H]1CC[C@@]2(C)[C@@H](CC(=O)[C@H]3[C@@H](C)/C(=C/C(=O)OCCNC)CC[C@@H]32)[C@@]1(C)C(=O)OC`, for which the Activity came to 8.14%.

In another experiment the test system is A549. Nature of the experiment: Induction of apoptosis in human A549 cells after 48 hrs by Annexin-V-FITC/propidium iodide staining based flow cytometric method. Type of experiment: functional, cell-based.
For `C/C=C(\C)C(=O)O[C@H]1CC[C@@]2(C)[C@@H](CC(=O)[C@H]3[C@@H](C)/C(=C/C(=O)OCCNC)CC[C@@H]32)[C@@]1(C)C(=O)OC`, the Activity result was “Dose-dependent effect”.

The subject of a further experiment is NCI-H1975. Description: Induction of apoptosis in human NCI-H1975 cells after 48 hrs by Annexin-V-FITC/propidium iodide staining based flow cytometric method. It counts as functional, cell-based.
Consider `C/C=C(\C)C(=O)O[C@H]1CC[C@@]2(C)[C@@H](CC(=O)[C@H]3[C@@H](C)/C(=C/C(=O)OCCNC)CC[C@@H]32)[C@@]1(C)C(=O)OC`, for which the Activity result was “Dose-dependent effect”.

A further experiment concerns NCI-H1299. Nature of the experiment: Induction of apoptosis in human NCI-H1299 cells after 48 hrs by Annexin-V-FITC/propidium iodide staining based flow cytometric method. It counts as functional, cell-based.
For the compound `C/C=C(\C)C(=O)O[C@H]1CC[C@@]2(C)[C@@H](CC(=O)[C@H]3[C@@H](C)/C(=C/C(=O)OCCNC)CC[C@@H]32)[C@@]1(C)C(=O)OC`, the Activity entry was “Dose-dependent effect”.

As usually defined, the pIC50 is the IC50 on a negative log10 scale, so that one unit is a factor of ten. Read a high pIC50 as a small IC50.

(Values after ChEMBL document CHEMBL4020777, “Cytotoxic and apoptosis-inducing activities against human lung cancer cell lines of cassaine diterpenoids from the bark of Erythrophleum fordii” (Bioorg Med Chem Lett, 2017).)
